According to patent publication US11702430B2, “Aza-benzothiophene compounds as STING agonists” (Merck Sharp & Dohme LLC, priority 2018, dated 2023):
pEC50: −log10 of the molar value.

Tests used:
full-length HAQ STING = target: T1, full-length HAQ STING (Homo sapiens, UniProt Q86WV6, G230A/H232R/R293Q/R71H); assay: 3H-cGAMP filtration binding assay (HAQ STING); conditions: for pEC50: competition with tritiated cGAMP ligand, HAQ STING membrane
T1 construct: made in house; host or cells: Trichoplusia ni (Hi-Five) insect cells, baculovirus; crude membrane preparation
From the text: The ability of compounds to bind STING is quantified by the ability to compete with tritiated cGAMP ligand for human STING receptor membrane using a radioactive filter-binding assay. The binding assay employs STING receptor obtained from Hi-Five cell membranes overexpressing full-length HAQ STING prepared in-house and tritiated cGAMP ligand also purified in-house.
The ability of compounds to bind STING is quantified by their ability to compete with tritiated cGAMP ligand for human STING receptor membrane using a radioactive filter-binding assay. The binding assay employs STING receptor obtained from Trichoplusia ni cell membranes (T. ni; Expression Systems, cat #94-002F, www.expressionsystems.com) overexpressing full-length HAQ STING and tritiated cGAMP ligand.
The basic HAQ STING filtration assay protocol is as follows:
The compounds were serially titrated by the Hamilton STARPlus CORE in a 96-well plate (Greiner, #651201) using a 1:3 ten-point dose response format. After compound preparation, a 2.2 ug/ml working concentration of STING membrane (SEQ. ID. No. 1) was prepared by diluting concentrated membrane into assay buffer (lx PBS; Invitrogen #SH30028.02) and douncing 7× using a manual tissue homogenizer (Wheaton, #357546). 148 uL of prepared membrane was then manually added to each well of a 96-well deep-well polypropylene plate (Fisher Scientific, #12-566-121). Following membrane addition, 2 uL of either titrated test compound, DMSO control (Sigma #276855), or cold cGAMP control was added to the appropriate wells using a BIOMEK FX. Compound and membrane then preincubated for 60 min at RT to allow compound binding to equilibrate. Following equilibration, 8 nM of [^3H] c-GAMP ligand was prepared by diluting into assay buffer, and 50 uL of this working stock was then manually added to each well of the assay plate. Plates were then incubated at RT for 60 min, and the contents of each assay plate were then filtered through a 96-well GF/B filter plate (PerkinElmer, #6005250) using a TOMTEC MACH III Cell Harvester equipped with 20 mM HEPES buffer (Fisher Scientific, #BP299500). The filter plates were then dried at 55° C. for 30 min using a pressurized oven before 30 uL of ULTIMA GOLD F scintillate was added to each well. Tritium levels for each reaction well were then measured using a PerkinElmer TopCount plate reader.
After normalization to controls, the percent activity for each compound concentration was calculated by measuring the amount of remaining radioactivity. The plot of percent activity versus the log of compound concentration was fit with a 4-parameter dose response equation to calculate EC50 values.

[1] = system: IFN-β secretion in THP1 cells; assay: IFN-β secretion in THP1 cell culture (5 h); assay type: cell-based; conditions: Homo sapiens, THP-1, 5 h, 30 μM compound, cGAMP at 30 μM set at 100%, read-out: % Effect at 30 μM relative to 2′3′-cGAMP
Protocol: The ability of compounds to stimulate the secretion of interferon-beta from THP1 cells was measured using a human IFN-β AlphaLISA kit (Perkin Elmer, Cat. No. AL265F). The basic protocol is as follows:
A Labcyte Echo 550 acoustic dispenser was used to transfer 120 nL of compound dissolved in DMSO into the wells of an empty, sterile 384-well microplate, (Corning, Cat. No. 3712). THP1 cells (American Type Culture Collection, Cat. No. TIB202) previously frozen in Recovery Medium (Life Technologies, Cat. No. 12648-010) were thawed and immediately diluted 10-fold into 37° C. assay medium (RPMI 1640+L-Glutamine & phenol red, Life Technologies, Cat. No. 11875-085; 0.5% heat inactivated fetal bovine serum, Sigma Aldrich, Cat. No. F4135; 1 mM Sodium Pyruvate, Life Technologies, Cat. No. 11360-070; lx non-essential amino acids; Life Technologies, Cat. No. 11140-050). The cell viability and count was ascertained using a Beckman Coulter V-Cell XR cell counter. The cells suspension was centrifuged at 200×g for 5 min at RT. Cells were resuspended to a density of 0.8×10^6/mL in 37° C. assay medium. Subsequent liquid transfers were performed using either a Matrix electronic multichannel pipette or an Agilent Bravo Automated Liquid Handling Platform.
The assay was started by dispensing 404, of the previously prepared cell suspension into the wells of the plate containing compounds. After 5 h incubation at 37° C., 5% CO2 in a humidified atmosphere, the plate of cells and compounds was centrifuged at 200×g for 5 min at RT. From each well, 54, of supernatant was transferred into corresponding wells of a white 384-well plate (Perkin Elmer, Cat. No. 6005620). To these supernatant-containing wells was added 10 μL of 5× Anti-Analyte Acceptor beads (50 μg/mL of AlphaLISA HiBlock Buffer) and incubated for 30 min at RT while shaking on an orbital plate shaker. To each well was added 104, of 5× Biotinylated Antibody Anti-analyte (5 nM in AlphaLISA HiBlock Buffer) and incubated on an orbital plate shaker for 60 min at RT or overnight at 4° C. To each well was added 254, of 2× SA-Donor beads (80 μg/mL in AlphaLISA HiBlock Buffer) and incubated for 30-45 min at RT in the dark while shaking on an orbital plate shaker. The plate was then read on a Perkin Elmer Envision (λex=680 nm, λem=[…]). The percent effect of the AlphaLISA signal at each compound concentration was calculated based on 30 uM cGAMP positive controls and 0.3% DMSO negative controls. The plot of percent effect versus the log of compound concentration was fit with a 4-parameter concentration response equation to calculate EC50 values. The test compounds were tested at concentrations 30000, 10000, 3333, 1111, 370.4, 123.4, 41.2, 13.7, 4.6, and 1.5 nM with 0.3% residual DMSO. The control compound, cGAMP was tested at concentrations 100000, 33333, 11111, 3704, 1235, 412, 137, 46, and 15 nM with 0.3% residual DMSO.

T1 sequence (Q86WV6 with tags, fused parts or gaps R71H/G230A/H232R/R293Q): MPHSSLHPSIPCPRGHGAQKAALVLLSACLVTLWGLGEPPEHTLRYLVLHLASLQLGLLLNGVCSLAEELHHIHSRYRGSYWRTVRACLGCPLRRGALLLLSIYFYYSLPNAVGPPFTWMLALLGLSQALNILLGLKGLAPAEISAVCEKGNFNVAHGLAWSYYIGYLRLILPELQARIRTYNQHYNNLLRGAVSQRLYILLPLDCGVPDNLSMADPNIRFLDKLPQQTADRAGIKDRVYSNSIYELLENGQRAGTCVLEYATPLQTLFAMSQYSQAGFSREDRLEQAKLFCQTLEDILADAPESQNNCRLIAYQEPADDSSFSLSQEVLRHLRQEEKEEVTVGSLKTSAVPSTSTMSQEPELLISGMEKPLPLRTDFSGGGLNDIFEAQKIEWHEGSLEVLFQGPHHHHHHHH

| SMILES | pEC50 (full-length HAQ STING) | activation at 30 µM [1] [%] | percent reduction in binding of tritiated cGAMP at top concentration (full-length HAQ STING; at 20,000 nM (20 uM) compound, HAQ STING) |
| --- | --- | --- | --- |
| COc1cc2nc(C(=O)CC(C)C(=O)O)sc2cc1OC (single isomer, unassigned) [Example 2, 4-(5,6-Dimethoxy-1,3-benzothiazol-2-yl)-2-methyl-4-oxobutanoic Acid] | 5.48 | 94 |  |
| COc1cc2sc(C(=O)CC(C)C(=O)O)cc2nc1OC (single isomer, unassigned) [Example 7, (R or S)-4-(5,6-Dimethoxythieno[3,2-b]pyridin-2-yl)-2-methyl-4-oxobutanoic acid] | 5.06 | 55 |  |
| COc1cc2sc(C(=O)CC(C)C(=O)O)cc2nc1OC (single isomer, unassigned) [Example 8, (R or S)-4-(5,6-Dimethoxythieno[3,2-b]pyridin-2-yl)-2-methyl-4-oxobutanoic acid] | 5.81 |  |  |
| COc1cc2sc(C(=O)[C@H]3C[C@H]3C(=O)O)cc2nc1OC (single isomer, unassigned) [Example 9, Cis-2-(5,6-dimethoxythieno[3,2-b]pyridine-2-carbonyl)cyclopropane-1-carboxylic Acid] | 5.94 | 100 |  |
| CCC(CC(=O)c1cc2nc(OC)c(OC)cc2s1)C(=O)O (single isomer, unassigned) [Example 11, (R or S)-4-(5,6-Dimethoxythieno[3,2-b]pyridin-2-yl)-2-ethyl-4-oxobutanoic acid] | 4.76 |  |  |
| CCC(CC(=O)c1cc2nc(OC)c(OC)cc2s1)C(=O)O (single isomer, unassigned) [Example 12, (R or S)-4-(5,6-Dimethoxythieno[3,2-b]pyridin-2-yl)-2-ethyl-4-oxobutanoic acid] | 5.76 |  |  |
| CCCC(CC(=O)c1cc2nc(OC)c(OC)cc2s1)C(=O)O (single isomer, unassigned) [Example 13, (R or S)-2-(2-(5,6-Dimethoxythieno[3,2-b]pyridin-2-yl)-2-oxoethyl) pentanoic acid] |  |  | 7% @ 20,000 |
| CCCC(CC(=O)c1cc2nc(OC)c(OC)cc2s1)C(=O)O (single isomer, unassigned) [Example 14, (R or S)-2-(2-(5,6-Dimethoxythieno[3,2-b]pyridin-2-yl)-2-oxoethyl) pentanoic acid] | 5.86 |  |  |
| CCC(CC(=O)c1cc2nc(OC)c(OC)nc2s1)C(=O)O (single isomer, unassigned) [Example 17, (R or S)-4-(2,3-Dimethoxythieno[2,3-b]pyrazin-6-yl)-2-ethyl-4-oxobutanoic Acid] | 5.57 | 116 |  |
| COc1nc2cc(C(=O)CC(C)C(=O)O)sc2nc1OC (single isomer, unassigned) [Example 18, (R or S)-4-(2,3-Dimethoxythieno[2,3-b]pyrazin-6-yl)-2-methyl-4-oxobutanoic Acid] | 5.35 | 77 |  |
| COc1cc2nc(C(=O)CCC(=O)O)sc2cc1OC [Example 1, 4-(5,6-Dimethoxybenzo[d]thiazol-2-yl)-4-oxobutanoic Acid] | 4.88 | 56 |  |
| COc1cc2sc(C(=O)C[C@H](C)C(=O)O)nc2cc1Br [Example 3, (S)-4-(5-Bromo-6-methoxybenzo[d]thiazol-2-yl)-2-methyl-4-oxobutanoic Acid] | 4.97 | 11 |  |
| COc1cc2sc(C(=O)CC(C)C(=O)O)nc2c(F)c1OC (stereo not drawn) [Example 4, 4-(4-Fluoro-5,6-dimethoxybenzo[d]thiazol-2-yl)-2-methyl-4-oxobutanoic Acid] | 5.17 | 19 |  |
| COc1cc2cc(C(=O)CCC(=O)O)sc2nc1OC [Example 5, 4-(5,6-Dimethoxythieno[2,3-b]pyridin-2-yl)-4-oxobutanoic Acid] | 5.26 | 146 |  |
| COc1cc2sc(C(=O)CCC(=O)O)cc2nc1OC [Example 6] | 5.61 | 107 |  |
| COc1cc2sc(C(=O)C[C@H](C)C(=O)O)cc2nc1Cl [Example 10, (S)-4-(5-Chloro-6-methoxythieno[3,2-b]pyridin-2-yl)-2-methyl-4-oxobutanoic Acid] | 6.20 | 70 |  |
| COc1nc2cc(C(=O)CCC(=O)O)sc2cc1Br [Example 15, 4-(6-Bromo-5-methoxythieno[3,2-b]pyridin-2-yl)-4-oxobutanoic Acid] | 5.61 | 142 |  |
| COc1nc2cc(C(=O)CCC(=O)O)sc2nc1OC [Example 16, 4-(2,3-Dimethoxythieno[2,3-b]pyrazin-6-yl)-4-oxobutanoic Acid] | 5.02 | 108 |  |
| COc1cc2sc(C(=O)C[C@H](C)C(=O)O)nc2nc1OC [Example 19, (S)-4-(5,6-Dimethoxythiazolo[4,5-b]pyridin-2-yl)-2-methyl-4-oxobutanoic Acid] | 5.00 | 14 |  |
